Where two headings read alike, the source gives them in different places.
Columns and labels:
[1] = biological target: T1, human leukocyte Cathepsin G (Homo sapiens, UniProt P08311); experiment: Cathepsin G inhibition, fluorogenic substrate, 96 well assay; format: biochemical; conditions: human leukocyte cathepsin G 100 ng, 37° C., 60 min, pH 6.6; for IC50: read-out: Amount for 50% inhibition (converted)
T1 construct: human leukocyte Cathepsin G (100 ng protein); from tissue; host or cells: human leukocytes
T1 sequence (P08311 21-244): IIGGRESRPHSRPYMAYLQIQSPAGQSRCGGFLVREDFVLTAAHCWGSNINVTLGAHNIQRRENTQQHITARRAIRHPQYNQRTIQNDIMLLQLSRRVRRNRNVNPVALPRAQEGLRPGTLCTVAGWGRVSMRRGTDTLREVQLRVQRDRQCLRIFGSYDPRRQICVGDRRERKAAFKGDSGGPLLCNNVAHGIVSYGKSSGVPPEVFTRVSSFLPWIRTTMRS
Description: Cathepsin G activity was determined using a 96 well assay format in PVC microtitre U-bottom plates with activity determination by a fluorescence plate reader. Briefly, within a total incubation volume of 40 μl, human leukocyte Cathepsin G (100 ng protein) was added to a mixture of inhibitor and the fluorogenic substrate MeOSuc-ala-ala-pro-phe-AMAC in 50 mM-NaOAc buffer, pH 6.6 containing 50 mM NaCl and 0.1% (v/v) Brij 35. The mixture was incubated at 37° C. for 60 min, the reaction stopped by the addition of 40 μl of 250 mM acetic acid and the fluorescence determined with excitation at 360 nm and emitted light measured at 460 nm.
In this table, the linked cyclitol compound identifications are the same as those given in Section A above where the structures of the compounds are also given. With regard to the purity rating, a greater number of asterisks signifies a greater degree of purity with five asterisks signifying an essentially pure compound. The cathepsin G inhibition data are the concentrations of compounds required to inhibit the enzyme by 50%.

[2] = biological target: T2, human platelet heparanase (Homo sapiens, UniProt Q9Y251); experiment: Heparanase inhibition, 3H-radiolabelled HS cleavage assay; format: biochemical; conditions: for inhibition: read-out: Relative inhibition (%); for EC50: heparanase inhibition; for inhibition at 10 µg/mL: read-out: Inhibition (%) at 10 μg/ml
T2 construct: 10 ng of purified human platelet heparanase; from tissue; host or cells: human platelets
T2 sequence (Q9Y251 158-543 limits assumed): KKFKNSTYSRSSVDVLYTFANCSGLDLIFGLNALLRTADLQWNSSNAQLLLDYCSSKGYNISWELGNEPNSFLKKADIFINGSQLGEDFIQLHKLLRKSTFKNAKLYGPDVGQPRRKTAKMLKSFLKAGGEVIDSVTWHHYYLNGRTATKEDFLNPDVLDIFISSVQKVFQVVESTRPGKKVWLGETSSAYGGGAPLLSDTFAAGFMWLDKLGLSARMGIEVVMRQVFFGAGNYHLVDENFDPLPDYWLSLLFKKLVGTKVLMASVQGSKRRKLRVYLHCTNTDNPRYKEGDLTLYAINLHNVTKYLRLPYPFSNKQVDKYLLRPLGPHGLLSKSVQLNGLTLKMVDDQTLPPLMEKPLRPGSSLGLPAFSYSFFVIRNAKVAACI
T2 sequence (Q9Y251 36-109 limits assumed): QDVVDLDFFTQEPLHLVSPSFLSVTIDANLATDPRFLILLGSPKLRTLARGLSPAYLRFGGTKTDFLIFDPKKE
Description: Briefly, to an incubation mixture of […] containing ^3H-radiolabelled porcine mucosal HS […], 50 mM-sodium acetate buffer, pH 5.0, […] bovine serum albumin and the inhibitor to be tested, was added 10 ng of purified human platelet heparanase and the mixture incubated for 30 min. The reaction was terminated by freezing the assay tubes. The substrate was separated from the cleavage products on minicolumns of sepharose-bound histidine-rich glycoprotein (Freeman, C., and Parish, C. R. [1997], supra).
Inhibitory activity is based on a comparison with heparin with 100% inhibition at 30 μg/ml. The compounds were also tested at the same purity as in Example 15.

bFGF = bFGF (Homo sapiens, UniProt P09038); experiment: Biacore biosensor: inhibition of bFGF binding to immobilised heparin and heparan sulfate
Sequence of bFGF (P09038 134-288 limits assumed, species assumed): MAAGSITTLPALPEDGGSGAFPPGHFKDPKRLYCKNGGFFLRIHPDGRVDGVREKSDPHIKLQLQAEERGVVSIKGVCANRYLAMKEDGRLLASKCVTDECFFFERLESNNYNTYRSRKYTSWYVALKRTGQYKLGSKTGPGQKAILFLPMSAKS
Description: (§1) Assays were performed using a Biacore™ 2000 optical biosensor obtained from Biacore AB, Uppsala, Sweden. The biosensor was operated in accordance with the manufacturer's instructions. Briefly, neutravidin was covalently coupled to the surface of CM5 chips of the biosensor and then either biotinylated heparin (1 μg/ml) or biotinylated heparan sulfate ([…]) bound to the immobilised neutravidin. Mixtures of a test compound and a growth factor or other effector compound were preincubated for 2 to 5 minutes and the mixtures then added to individual biosensor cuvettes. Binding of growth factor or effector compound to the heparin or heparan sulfate was then monitored for approximately 5 minutes with the biosensor.
(§2) The tabulated values are the IC50 in μM or % inhibition of binding of the growth factor to the immobilised heparan sulfate (HS) or heparin.

aFGF = aFGF (Homo sapiens, UniProt P05230); experiment: Biacore biosensor: inhibition of aFGF binding to immobilised heparin and heparan sulfate; conditions: inhibitor 0.034 μM, aFGF 0.025 μM
Sequence of aFGF (P05230 whole entry, species assumed): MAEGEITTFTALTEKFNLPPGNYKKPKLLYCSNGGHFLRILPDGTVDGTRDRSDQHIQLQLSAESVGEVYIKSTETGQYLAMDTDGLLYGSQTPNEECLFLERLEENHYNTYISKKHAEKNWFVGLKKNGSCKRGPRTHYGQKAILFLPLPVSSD
Description: as §1, §2

VEGF = biological target: T3, VEGF (Homo sapiens, UniProt P15692); experiment: Biacore biosensor: inhibition of VEGF binding to immobilised heparin and heparan sulfate; conditions: inhibitor 0.034 μM, VEGF 0.025 μM
T3 sequence (P15692 27-191 isoform P15692-4): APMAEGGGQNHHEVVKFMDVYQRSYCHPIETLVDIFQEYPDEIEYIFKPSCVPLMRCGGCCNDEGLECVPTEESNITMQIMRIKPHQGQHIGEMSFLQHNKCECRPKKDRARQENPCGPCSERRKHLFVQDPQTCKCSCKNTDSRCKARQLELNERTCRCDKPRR
Description: as §1, §2

IL-8 = biological target: T4, IL-8 (Homo sapiens, UniProt P10145); experiment: Biacore biosensor: inhibition of IL-8 binding to immobilised heparin and heparan sulfate; conditions: inhibitor 1.0 μM, IL-8 0.068 μM
T4 sequence (P10145 21-99): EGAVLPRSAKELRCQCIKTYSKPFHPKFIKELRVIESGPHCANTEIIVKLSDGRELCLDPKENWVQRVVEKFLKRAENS
Description: as §1

[3] = based on a comparison with heparin with 100% inhibition at 30 μg/ml
[4] = immobilised heparan sulfate, inhibitor 0.034 μM, bFGF 0.034 μM, read-out: Inhibition of binding of bFGF (HS)
[5] = immobilised heparan sulfate, read-out: IC50, inhibition of bFGF binding (HS)
[6] = immobilised heparin, inhibitor 0.034 μM, bFGF 0.034 μM, read-out: Inhibition of binding of bFGF (Hep)
[7] = immobilised heparin, read-out: IC50, inhibition of bFGF binding (Hep)
[8] = immobilised heparan sulfate, read-out: Inhibition of binding of aFGF (HS)
[9] = immobilised heparin, read-out: Inhibition of binding of aFGF (Hep)
[10] = immobilised heparan sulfate, read-out: Inhibition of binding of VEGF (HS)
[11] = immobilised heparin, read-out: Inhibition of binding of VEGF (Hep)
[12] = immobilised heparan sulfate, read-out: Inhibition of binding of IL-8 (HS)
[13] = immobilised heparin, read-out: Inhibition of binding of IL-8 (Hep)

| Compound | IC50 [1] | inhibition [2, 3] | EC50 ([2]; read-out: EC50 (converted)) | inhibition at 10 µg/mL [2] | inhibition at 0.034 µM (bFGF; [4]) | IC50 (bFGF; [5]) | inhibition at 0.034 µM (bFGF; [6]) | IC50 (bFGF; [7]) | inhibition at 0.034 µM (aFGF; [8]) | inhibition at 0.034 µM (aFGF; [9]) | inhibition at 0.034 µM (VEGF; [10]) | inhibition at 0.034 µM (VEGF; [11]) | inhibition at 1 µM (IL-8; [12]) | inhibition at 1 µM (IL-8; [13]) | also measured |
| --- | --- | --- | --- | --- | --- | --- | --- | --- | --- | --- | --- | --- | --- | --- | --- |
| O=S(=O)(O)O[C@H]1[C@H](OS(=O)(=O)O)[C@@H](N(CCCN([C@H]2C=C[C@@H](OS(=O)(=O)O)[C@@H](OS(=O)(=O)O)[C@@H]2OS(=O)(=O)O)[C@H]2C=C[C@@H](OS(=O)(=O)O)[C@@H](OS(=O)(=O)O)[C@@H]2OS(=O)(=O)O)[C@H]2C=C[C@@H](OS(=O)(=O)O)[C@@H](OS(=O)(=O)O)[C@@H]2OS(=O)(=O)O)C=C[C@H]1OS(=O)(=O)O [Compound 4a] | 0.162 µM | 60% | 16.2 µM | 37% | 29% | 0.11 µM | 20% | > 0.25 µM | 73% | 74% | 4% | 5% | 38% | 48% | – |
| O=S(=O)(O)O[C@H]1[C@H](OS(=O)(=O)O)[C@@H](N(CCCCCCCCCCN([C@H]2C=C[C@@H](OS(=O)(=O)O)[C@@H](OS(=O)(=O)O)[C@@H]2OS(=O)(=O)O)[C@H]2C=C[C@@H](OS(=O)(=O)O)[C@@H](OS(=O)(=O)O)[C@@H]2OS(=O)(=O)O)[C@H]2C=C[C@@H](OS(=O)(=O)O)[C@@H](OS(=O)(=O)O)[C@@H]2OS(=O)(=O)O)C=C[C@H]1OS(=O)(=O)O [Compound 4c] | 0.158 µM | 45% | 25.5 µM | – | 43% | – | 34% | – | 21% | 26% | 53% | 62% | 77% | 76% | – |
| O=S(=O)(O)O[C@H]1[C@H](OS(=O)(=O)O)[C@@H](N(CCN([C@H]2C=C[C@@H](OS(=O)(=O)O)[C@@H](OS(=O)(=O)O)[C@@H]2OS(=O)(=O)O)[C@H]2C=C[C@@H](OS(=O)(=O)O)[C@@H](OS(=O)(=O)O)[C@@H]2OS(=O)(=O)O)[C@H]2C=C[C@@H](OS(=O)(=O)O)[C@@H](OS(=O)(=O)O)[C@@H]2OS(=O)(=O)O)C=C[C@H]1OS(=O)(=O)O [Compound 4f] | 0.189 µM | 60% | 11.1 µM | 44% | 19% | 0.24 µM | 15% | > 0.25 µM | 68% | 65% | 0% | 0% | 38% | 48% | – |
| O=S(=O)(O)O[C@H]1[C@H](OS(=O)(=O)O)[C@@H](N(CCCCN([C@H]2C=C[C@@H](OS(=O)(=O)O)[C@@H](OS(=O)(=O)O)[C@@H]2OS(=O)(=O)O)[C@H]2C=C[C@@H](OS(=O)(=O)O)[C@@H](OS(=O)(=O)O)[C@@H]2OS(=O)(=O)O)[C@H]2C=C[C@@H](OS(=O)(=O)O)[C@@H](OS(=O)(=O)O)[C@@H]2OS(=O)(=O)O)C=C[C@H]1OS(=O)(=O)O [Compound 4g] | 0.128 µM | 57% | 14.1 µM | 42% | 44% | – | 31% | > 0.25 µM | 43% | 44% | 10% | 21% | 42% | 67% | – |
| O=S(=O)(O)OC[C@H]1O[C@@](COS(=O)(=O)O)(O[C@H]2O[C@H](COS(=O)(=O)O)[C@@H](OS(=O)(=O)O)[C@H](OS(=O)(=O)O)[C@H]2OS(=O)(=O)O)[C@@H](OS(=O)(=O)O)[C@@H]1OS(=O)(=O)O [Sucrose octasulfate, reference compound] | – | – | – | – | – | 0.925 µM | – | > 1 µM | – | – | – | – | – | – | Amount for 50% inhibition [1]: 4.30 µg/mL; Relative inhibition (%) [2, 3]: 0%; EC50 [2]: >30 µg/mL; Inhibition of binding of bFGF (HS) (bFGF; immobilised heparan sulfate, inhibitor 0.034 μM, bFGF 0.034 μM): 2.5% (HS); Inhibition of binding of bFGF (Hep) (bFGF; immobilised heparin, inhibitor 0.034 μM, bFGF 0.034 μM): 0% (Hep); Inhibition of binding of aFGF (HS) (aFGF; immobilised heparan sulfate): 0% (HS); Inhibition of binding of aFGF (Hep) (aFGF; immobilised heparin): 0% (Hep); Inhibition of binding of VEGF (HS) (VEGF; immobilised heparan sulfate): 0% (HS); Inhibition of binding of VEGF (Hep) (VEGF; immobilised heparin): 0% (Hep) |

The next lines start with results.

| IC50 [1] | inhibition [2, 3] | EC50 ([2]; read-out: EC50 (converted)) | inhibition at 10 µg/mL [2] | inhibition at 0.034 µM (bFGF; [4]) | IC50 (bFGF; [5]) | inhibition at 0.034 µM (bFGF; [6]) | IC50 (bFGF; [7]) | inhibition at 0.034 µM (aFGF; [8]) | inhibition at 0.034 µM (aFGF; [9]) | inhibition at 0.034 µM (VEGF; [10]) | inhibition at 0.034 µM (VEGF; [11]) | inhibition at 1 µM (IL-8; [12]) | inhibition at 1 µM (IL-8; [13]) | Compound | also measured |
| --- | --- | --- | --- | --- | --- | --- | --- | --- | --- | --- | --- | --- | --- | --- | --- |
| 0.304 µM | – | 5.92 µM | – | – | 0.096 µM | – | > 0.25 µM | – | – | – | – | – | – | O=S(=O)(O)OC1C(OS(=O)(=O)O)C(OS(=O)(=O)O)C(N(CCCCCCN(C2C(OS(=O)(=O)O)C(OS(=O)(=O)O)C(OS(=O)(=O)O)C(OS(=O)(=O)O)C2OS(=O)(=O)O)C2C(OS(=O)(=O)O)C(OS(=O)(=O)O)C(OS(=O)(=O)O)C(OS(=O)(=O)O)C2OS(=O)(=O)O)C2C(OS(=O)(=O)O)C(OS(=O)(=O)O)C(OS(=O)(=O)O)C(OS(=O)(=O)O)C2OS(=O)(=O)O)C(OS(=O)(=O)O)C1OS(=O)(=O)O (stereo not drawn) [Compound 5b] | – |
| 0.198 µM | – | 20.6 µM | – | – | > 0.25 µM | – | > 0.25 µM | – | – | – | – | – | – | O=S(=O)(O)OC1C(OS(=O)(=O)O)C(OS(=O)(=O)O)C(N(CCCCCCCCCCN(C2C(OS(=O)(=O)O)C(OS(=O)(=O)O)C(OS(=O)(=O)O)C(OS(=O)(=O)O)C2OS(=O)(=O)O)C2C(OS(=O)(=O)O)C(OS(=O)(=O)O)C(OS(=O)(=O)O)C(OS(=O)(=O)O)C2OS(=O)(=O)O)C2C(OS(=O)(=O)O)C(OS(=O)(=O)O)C(OS(=O)(=O)O)C(OS(=O)(=O)O)C2OS(=O)(=O)O)C(OS(=O)(=O)O)C1OS(=O)(=O)O (stereo not drawn) [Compound 5c] | heparanase inhibition, in words [2]: poor heparanase inhibitor |

Reference: patent US7173019B2, “Linked cyclitols and their polysulfated derivatives” (The Australian National University, priority 2001, dated 2007)
